What was measured:
[1] = target: T1, AdeB multidrug efflux pump (Acinetobacter baumannii, UniProt Q2FD70); assay: fluorescence polarization Kd with purified AdeB; cryo-EM structures in lipidic nanodiscs (7KGG, 7KGH, 7KGI); format: binding; design: full-length; homotrimer
[2] = target: T1, AdeB multidrug efflux pump; assay: fluorescence polarization titration with purified AdeB; format: binding; design: full-length
[3] = target: Acinetobacter baumannii AdeB multidrug efflux pump (Acinetobacter baumannii (AB0057)); assay: cryo-EM structure; AdeB in lipidic nanodiscs (MSP 1E3D1, E. coli total extract lipid; 20 mM Tris-HCl pH 7.5, 100 mM NaCl); 2 uM AdeB-nanodisc incubated with 20 uM ethidium bromide for 2 h; six conformational classes (three apo, three Et-bound) sorted from one sample
CusB (Escherichia coli) = CusB (Escherichia coli) (UniProt P77239); assay: ITC; conditions: cited from earlier work

Chain of CusA (P38054 whole entry): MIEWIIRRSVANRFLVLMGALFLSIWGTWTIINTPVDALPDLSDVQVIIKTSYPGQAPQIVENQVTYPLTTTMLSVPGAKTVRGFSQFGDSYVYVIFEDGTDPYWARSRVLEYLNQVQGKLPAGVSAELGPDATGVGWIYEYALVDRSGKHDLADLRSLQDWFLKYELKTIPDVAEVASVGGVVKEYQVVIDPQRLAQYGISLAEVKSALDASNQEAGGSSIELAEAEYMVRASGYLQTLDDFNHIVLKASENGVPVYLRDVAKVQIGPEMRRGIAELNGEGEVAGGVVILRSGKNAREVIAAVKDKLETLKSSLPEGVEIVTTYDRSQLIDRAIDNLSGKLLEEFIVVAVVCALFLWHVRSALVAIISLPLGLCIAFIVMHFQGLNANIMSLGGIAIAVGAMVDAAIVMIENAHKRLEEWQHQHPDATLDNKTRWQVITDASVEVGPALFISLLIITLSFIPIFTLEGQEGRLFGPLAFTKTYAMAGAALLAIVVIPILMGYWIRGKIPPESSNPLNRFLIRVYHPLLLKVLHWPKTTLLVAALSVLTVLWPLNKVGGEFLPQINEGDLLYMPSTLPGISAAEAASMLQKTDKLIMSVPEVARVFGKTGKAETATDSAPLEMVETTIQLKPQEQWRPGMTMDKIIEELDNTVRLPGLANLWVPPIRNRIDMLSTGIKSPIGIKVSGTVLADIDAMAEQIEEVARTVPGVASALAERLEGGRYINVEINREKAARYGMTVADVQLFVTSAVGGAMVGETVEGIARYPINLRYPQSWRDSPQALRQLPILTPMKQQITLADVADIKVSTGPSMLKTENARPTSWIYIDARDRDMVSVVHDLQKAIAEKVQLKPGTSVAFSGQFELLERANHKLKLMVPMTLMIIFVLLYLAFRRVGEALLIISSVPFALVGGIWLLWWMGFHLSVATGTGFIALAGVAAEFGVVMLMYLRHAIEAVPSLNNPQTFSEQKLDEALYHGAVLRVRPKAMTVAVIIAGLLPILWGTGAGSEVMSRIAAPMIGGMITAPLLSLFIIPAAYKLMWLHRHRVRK

Compound: CC[n+]1c(-c2ccccc2)c2cc(N)ccc2c2ccc(N)cc21 [Et, ethidium bromide]
- Kd [1]: 2.5 ± 0.1 µM

Compound: CC/N=c1\cc2oc3cc(NCC)c(C)cc3c(-c3ccccc3C(=O)OCC)c-2cc1C [R6G, rhodamine 6G]
- Kd [2]: 3.1 ± 0.1 µM

Compound: Acinetobacter baumannii AdeB multidrug efflux pump (natural protein)
- stoichiometry N [3]: 3

Compound: CusA (from UniProt P38054)
- Kd (CusB (Escherichia coli)): 5.1 µM

Reference: article PMC8545137, “Cryoelectron Microscopy Structures of AdeB Illuminate Mechanisms of Simultaneous Binding and Exporting of Substrates” (mBio, 2021)
